26 molecules from US6894061B2, “Substituted dihydrophenanthridinesulfonamides” (Wyeth, priority 2002, dated 2005) can be followed below.

Data set [1] concerns creatine kinase. Nature of the data set: Creatine kinase (CK) test procedure in Ad5-wt-ERα infected HAECT-1 cells. It is filed as cell-based, human. As to conditions: Ad5-wt-ERα infected HAECT-1 cells; for Emax at 10 µM / Creatin Kinase Efficacy (%): @10 μM. As for the experimental part:
(§1) After four hours, cells were washed with EBM-BSA and incubated overnight in the same medium. Following overnight incubation, cells were washed with EBM-BSA and infected for 2 hours with 6 mL of a 1:10 dilution of Ad5-3x(NFκB).Luc virus (Adenovirus luciferase expression vector driven by 3 repeats of the MHC NFκb site 5′ to the thymidine kinase promoter) in EBM-BSA. After two hours, cells were washed and incubated at 34° C. for 1 hour. […] Control (no ER infection) cells were processed as above without Ad5-wt-hERα virus infection.
(§2) ERα infected HAECT-1 cells or control cells were thawed, diluted 42× in warm EBM-BSA, plated into 96-well plates at 0.1 mL/well and incubated for 4 hours at 34° C. Test compounds were added to the cells as 2× stocks in EBM-BSA containing 2 ng/mL IL-1β (R&D Systems) and the 96-well plates were returned to the incubator (34° C.). After 15-20 hours, 100 μL aliquots of media were removed from the cells and assayed for IL-6 content using a BioSource human IL-6 ELISA Kit. Cells were subsequently washed with 300 μL of Dulbecco's phosphate buffered saline and lysed in 50 μL of Cell Culture Lysis Reagent (Promega). Luciferase was determined on a Wallac Victor^2 Luminometer (Gaithersburg, Md.) using 10 μL of lysate and mixing with 100 μL of Promega Luciferase Assay reagent. Creatine kinase was determined from the rate of increase in A340 following addition of 100 μL of CK assay reagent (Sigma, cat. No 47-10) to the remainder of the cell lysate.
(§3) For IC50 and EC50 calculations, mean IL-6, luciferase or CK values versus log10 of the compound concentration were fitted to a four parameter logistic equation. The IC50/EC50 value, ‘Hill slope’, upper and lower limits of the curve were iteratively estimated.

For data set [2], the system named is ER/NF-κB. Nature of the data set: ER/NF-κB luciferase reporter in Ad5-wt-ERα infected HAECT-1 cells. It is filed as cell-based, human. As to conditions: for Emax: read-out: ER/NFκB Efficacy (%)*; for IC50: read-out: ER/NFκB IC50. As to the method:
as §1, §2, §3
In general terms: Reporter assays use an easily measured gene product as a stand-in for the process of interest.

[3] abbreviates: Homo sapiens, HAECT1, read-out: Creatin Kinase Efficacy (%).

Read-outs that look alike come from different tables or passages of the source. A value given as a limit tells only on which side of the number the result lay.

As for `CCC1c2ccccc2-c2cc(-c3ccccc3Cl)ccc2N1S(=O)(=O)c1ccc(O)cc1` (stereo not shown) [Example 74, 4-{[2-(2-Chlorophenyl)-6-ethylphenanthridin-5(6H)-yl]sulfonyl}phenol], in data set [1] (setting [3]), the Emax at 10 µM was below 35%. For the same molecule, in data set [2] (Homo sapiens, HAECT1, IL-1β), the Emax worked out at 96% and the IC50 was 434 nM.
On to `CCC1c2ccccc2-c2cc(-c3ccccc3Cl)ccc2N1S(=O)(=O)c1ccc(O)c(C)c1` (stereo not shown) [Example 95, 4-{[2-(2-Chlorophenyl)-6-ethylphenanthridin-5(6H)-yl]sulfonyl}-2-methylphenol], for which, in data set [1] (setting [3]), the Emax at 10 µM was below 35%. Further, in data set [2] (Homo sapiens, HAECT1, IL-1β), the Emax is 89% and the IC50 was found to be 678 nM.
Taken in the same sequence, the figures for `CCC1c2cc(F)ccc2-c2cc(-c3ccsc3)ccc2N1S(=O)(=O)c1ccc(O)cc1` (stereo not shown) [Example 52, 4-[(6-Ethyl-8-fluoro-2-thien-3-ylphenanthridin-5(6H)-yl)sulfonyl]phenol] were below 35%, 95% and 68 nM.
Taken in the same sequence, the figures for `CCC1c2ccccc2-c2cc(-c3cccc(Cl)c3)ccc2N1S(=O)(=O)c1ccc(O)cc1` (stereo not shown) [Example 67, 4-{[2-(3-Chlorophenyl)-6-ethylphenanthridin-5(6H)-yl]sulfonyl}phenol] were below 35%, 79% and 245 nM.
Turning to `CCC1c2ccccc2-c2cc(-c3ccccc3)ccc2N1S(=O)(=O)c1ccc(O)cc1` (stereo not shown) [Example 69, 4-[(6-Ethyl-2-phnylphenanthridin-5(6H)-yl)sulfonyl]phenol], in data set [1], the “Creatin Kinase Efficacy (%)” value is listed as below 35% @10 μM. Also, in data set [2] (IL-1β), the “ER/NFκB Efficacy (%)*” value amounted to 90% and the IC50 turned out to be 235 nM.
With `CCC1c2ccccc2-c2cc(-c3ccsc3)ccc2N1S(=O)(=O)c1ccc(O)cc1` (stereo not shown) [Example 28, 4-[(6-Ethyl-2-thin-3-ylphnanthridin-5(6H)-yl)sulfonyl]phenol], the “Creatin Kinase Efficacy (%)” value in data set [1] was below 35% @10 μM. In addition, in data set [2] (IL-1β), the “ER/NFκB Efficacy (%)*” value was determined as 98% and the IC50 came out at 76 nM.
Regarding `CCC1c2ccccc2-c2cc(-c3cccc(O)c3)ccc2N1S(=O)(=O)c1ccc(O)c(C)c1` (stereo not shown) [Example 84, 4-{[6-Ethyl-2-(3-hydroxyphenyl)phenanthridin-5(6H)-yl]sulfonyl}-2-methylphenol], in data set [1] (setting [3]), the Emax at 10 µM was below 35%. In data set [2] (Homo sapiens, HAECT1, IL-1β), the Emax is 80% and the IC50 came out at 447 nM.
Taken in the same sequence, the figures for `CCC1c2ccccc2-c2cc(-c3cc4ccccc4s3)ccc2N1S(=O)(=O)c1ccc(O)c(C)c1` (stereo not shown) [Example 90, 4-{[2-(1-Benzothien-2-yl)-6-ethylphenanthridin-5(6H)-yl]sulfonyl}-2-methylphenol] were below 35%, 108% and 2550 nM.
Regarding `CC1c2ccccc2-c2ccccc2N1S(=O)(=O)c1ccc(O)c(C=O)c1` (stereo not shown) [Example 27, 2-Hydroxy-5-[(6-methylphenanthridin-5(6H)-yl)sulfonyl]b nzald hyde], the “Creatin Kinase Efficacy (%)” value in data set [1] is reported as below 35% @10 μM. For the same molecule, in data set [2] (IL-1β), the IC50 was above 10000 nM.
For `CCC1c2ccccc2-c2cc(-c3ccc(O)cc3)ccc2N1S(=O)(=O)c1ccc(O)cc1` (stereo not shown) [Example 73, 4-{[6-Ethyl-2-(4-hydroxyphenyl)phenanthridin-5(6H)-yl]sulfonyl}phenol], in data set [1] (setting [3]), the Emax at 10 µM is below 35%. In data set [2] (Homo sapiens, HAECT1, IL-1β), the Emax came to 56% and the IC50 was 52 nM.
In the same order, the values of `CCc1ccc(-c2ccc3c(c2)-c2ccccc2C(CC)N3S(=O)(=O)c2ccc(O)cc2)cc1` (stereo not shown) [Example 75, 4-{[6-Ethyl-2-(4-ethylphenyl)phenanthridin-5(6H)-yl]sulfonyl}phenol] are below 35%, 116% and 3930 nM.
As to `CCC1c2ccccc2-c2cc(-c3ccc(C(C)=O)s3)ccc2N1S(=O)(=O)c1ccc(O)cc1` (stereo not shown) [Example 76, 1-(5-{6-Ethyl-5-[(4-hydroxyphnyl)sulfonyl]-5,6-dihydrophnanthridin-2-yl}thin-2-yl)ethanone], in data set [1], the “Creatin Kinase Efficacy (%)” value is listed as below 35% @10 μM. Besides, in data set [2] (IL-1β), the “ER/NFκB Efficacy (%)*” value amounted to 67% and the IC50 stood at 1180 nM.
Turning to `CCC1c2ccccc2-c2cc(-c3ccsc3)ccc2N1S(=O)(=O)c1ccc(O)c(C)c1` (stereo not shown) [Example 79, 4-[(6-Ethyl-2-thien-3-ylphenanthridin-5(6H)-yl)sulfonyl]-2-methylphenol], the Emax at 10 µM in data set [1] (setting [3]) is below 35%. Besides, in data set [2] (Homo sapiens, HAECT1, IL-1β), the Emax is 86% and the IC50 was found to be 226 nM.
In the same order, the values of `CCC1c2ccccc2-c2cc(Br)ccc2N1S(=O)(=O)c1ccc(O)c(C)c1` (stereo not shown) [Example 21, 4-[(2-Bromo-6-ethylphenanthridin-5(6H)-yl)sulfonyl]-2-methylphenol] are below 35%, 85% and 831 nM.
`CCC1c2cc(F)ccc2-c2cc(-c3cccnc3)ccc2N1S(=O)(=O)c1ccc(O)cc1` (stereo not shown) [Example 127, 4-[(6-Ethyl-8-fluoro-2-pyridin-3-ylphenanthridin-5(6H)-yl)sulfonyl]phenol] came in with a melting point of 195 to 200 °C.
With `CCC1c2ccccc2-c2cc(/C=C/c3ccccc3)ccc2N1S(=O)(=O)c1ccc(O)cc1` (stereo not shown) [Example 65, 4-{[6-Ethyl-2-[(E)-2-phenylethenyl]phenanthridin-5(6H)-yl]sulfonyl}phenol], in data set [1] (setting [3]), the Emax at 10 µM was below 35%. Further, in data set [2] (Homo sapiens, HAECT1, IL-1β), the Emax came to 93% and the IC50 came out at 241 nM.
For `CCC1c2cc(F)ccc2-c2ccccc2N1S(=O)(=O)c1ccc(OC(=O)c2ccccc2)cc1` (stereo not shown) [Example 55, 4-[(6-Ethyl-8-fluorophenanthridin-5(6H)-yl)sulfonyl]phenyl benzoate], the EC50 in data set [1] (Homo sapiens, HAECT1, read-out: Creatin Kinase EC50) was found to be 239 nM. Also, the Emax in data set [1] (setting [3]) is 32%. Further, the IC50 in data set [2] (Homo sapiens, HAECT1, IL-1β) was above 10000 nM.
Regarding `CCC1c2ccccc2-c2ccccc2N1S(=O)(=O)c1ccc(O)c(C)c1` (stereo not shown) [Example 20, 4-[(6-Ethylphenanthridin-5(6H)-yl)sulfonyl]-2-methylphenol], the Emax at 10 µM in data set [1] (setting [3]) was below 35%. Moreover, the IC50 in data set [2] (Homo sapiens, HAECT1, IL-1β) was above 10000 nM.
Consider `CCC1c2ccccc2-c2cc(Br)ccc2N1S(=O)(=O)c1ccc(O)cc1` (stereo not shown) [Example 19, 4-[(2-Bromo-6-ethylphenanthridin-5(6H)-yl)sulfonyl]phenol], for which the Emax at 10 µM in data set [1] (setting [3]) was below 35%. Besides, in data set [2] (Homo sapiens, HAECT1, IL-1β), the Emax worked out at 80% and the IC50 was 186 nM.
For `CC1c2c(O)cccc2-c2ccccc2N1S(=O)(=O)c1ccc(O)cc1` (stereo not shown) [Example 39, 5-[(4-Hydroxyphenyl)sulfonyl]-6-methyl-5,6-dihydrophenanthridin-7-ol], the Emax at 10 µM in data set [1] (setting [3]) is below 35%. Moreover, the IC50 in data set [2] (Homo sapiens, HAECT1, IL-1β) was above 10000 nM.
`CCC1c2ccccc2-c2ccccc2N1S(=O)(=O)c1ccc(O)cc1` (stereo not shown) [Example 18, 4-[(6-Ethylphenanthridin-5(6H)-yl)sulfonyl]phenol]: the Emax at 10 µM in data set [1] (setting [3]) is below 35%. Moreover, in data set [2] (Homo sapiens, HAECT1, IL-1β), the Emax came to 76% and the IC50 came out at 529 nM.
Taken in the same sequence, the figures for `CCC1c2ccccc2-c2cc(-c3cccc(OC)c3)ccc2N1S(=O)(=O)c1ccc(O)cc1` (stereo not shown) [Example 29, 4-{[6-Ethyl-2-(3-methoxyphenyl)phenanthridin-5(6H)-yl]sulfonyl}phenol] were below 35%, 86% and 234 nM.
In the same order, the values of `CCC1c2ccccc2-c2cc(-c3ccccc3O)ccc2N1S(=O)(=O)c1ccc(O)c(C)c1` (stereo not shown) [Example 78, 4-{[6-Ethyl-2-(2-hydroxyphenyl)phenanthridin-5(6H)-yl]sulfonyl}-2-methylphenol] are below 35%, 79% and 771 nM.
As to `CCC1c2ccccc2-c2cc(-c3ccc(O)cc3)ccc2N1S(=O)(=O)c1ccc(O)c(C)c1` (stereo not shown) [Example 94, 4-{[6-Ethyl-2-(4-hydroxyphnyl)phenanthridin-5(6H)-yl]sulfnyl}-2-methylph nl], the “Creatin Kinase Efficacy (%)” value in data set [1] was below 35% @10 μM. Besides, in data set [2] (IL-1β), the “ER/NFκB Efficacy (%)*” value is recorded as 105% and the IC50 worked out at 382 nM.
Taken in the same sequence, the figures for `CCC1c2ccccc2-c2cc(-c3ccccc3O)ccc2N1S(=O)(=O)c1ccc(O)cc1` (stereo not shown) [Example 63, 2-{6-Ethyl-5-[(4-hydroxyphnyl)sulfonyl]-5,6-dihydrphnanthridin-2-yl}ph nol] were below 35% @10 μM, 89% and 335 nM.
In the same order, the values of `CCC1c2ccccc2-c2cc(-c3ccccc3C)ccc2N1S(=O)(=O)c1ccc(O)cc1` (stereo not shown) [Example 70, 4-{[6-Ethyl-2-(2-mthylphnyl)phenanthridin-5(6H)-yl]sulfonyl}phenol] are below 35% @10 μM, 90% and 463 nM.

In general, melting point refers to the temperature of the solid-liquid transition. By EC50 is commonly meant the concentration giving half of the maximal effect.
